Experiments:
Kv1.1 = Kv1.1 (Homo sapiens, UniProt Q09470); set-up: method as in PMID 33093824; conditions: cited from earlier work
Kv7.5 = Kv7.5 (Homo sapiens, UniProt Q9NR82); set-up: method as in PMID 35997997; conditions: 100 µM; at −80 mV; cited from earlier work
Kv1.3 Mutant 3 = Kv1.3 Mutant 3 (Homo sapiens, UniProt P22001, H451V/V453T); test: TEVC electrophysiology, oocytes expressing Kv1.3 Mutant 3 (Kv1.2 selectivity filter-S6 linker residues); assay type: cell-based
Description: (§1) To test whether the predicted different binding poses of tannic acid to Kv1.2 and Kv1.3 could explain the contrasting functional effects on these two channels, we made three mutant forms of Kv1.3, introducing Kv1.2 residues into the Kv1.3 turret loop (Mutant 1), pore helix (Mutant 2) and selectivity filter-S6 linker (Mutant 3) (Fig. 9A, B). Mutant 2 was nonfunctional (Fig. 9C); the single residue in this mutant was inaccessible to tannic acid as it was deep inside the pore and was not predicted therefore to interact with tannic acid (Fig. 8).
(§2) We generated human potassium channel cRNA transcripts with the mMessage mMachine kit (Thermo Fisher Scientific, Waltham, MA, USA) according to manufacturer’s instructions, after vector linearization, from cDNA sub-cloned into expression vectors (pTLNx, pXOOM and pMAX). We injected Xenopus laevis oocytes (Xenoocyte, Dexter, MI, USA) with the channel cRNAs (0.5–10 ng) and incubated the oocytes at 16 °C for 1–4 days prior to electrophysiological recording.
(§3) We performed TEVC at 20–23 °C with an OC-725C amplifier (Warner Instruments, Hamden, CT, USA) and pClamp10 software. Chemicals for recording and oocyte storage solutions were from Sigma-Aldrich (St. Louis, MO). Bath solution contained (in mM): 96 NaCl, 4 KCl, 1 MgCl2, 1 CaCl2, 10 HEPES (pH 7.6). Pipettes were 1–2 MΩ resistance when filled with 3 M KCl. We recorded currents in response to voltage pulses between −120 mV or −80 mV and +40 mV at 10 mV intervals from a holding potential of −80 mV, to yield current–voltage relationships and examine activation kinetics. We recorded and analyzed data using Clampfit (Molecular Devices, Sunnyvale, CA, USA) and Graphpad Prism software (GraphPad, San Diego, CA, USA), stating values as mean ± SEM. We calculated the voltage dependence of activation (V0.5) by measuring tail currents at a voltage pulse of −30 mV (Kv7) or −50 mV (Kv1), then fitted the tail current/voltage relationship with a single Boltzmann function:1 g=(A1−A2)/{1+exp[V1/2−V/Vs]}y+A2 where g is the normalized tail conductance, A1 is the initial value at −∞, A2 is the final value at +∞, V1/2 is the half-maximal voltage of activation and Vs the slope factor. We fitted activation and deactivation kinetics with single exponential functions.
(§4) For wild-type and mutant Kv1.3 channels we calculated conductance–voltage curves from current–voltage relationships recorded in response to voltage pulses between −80 mV to +40 mV in 10 mV intervals from a holding potential of −80 mV. The conductance was calculated by subtracting the driving force (EK):2 Ek=xlnK^+i/K^+o

TREK-1 (KCNK2) = molecular target: T1, TREK-1 (KCNK2) (Homo sapiens, UniProt O95069); test: TEVC electrophysiology, Xenopus oocytes expressing TREK-1; assay type: cell-based
T1 sequence (O95069 1-426): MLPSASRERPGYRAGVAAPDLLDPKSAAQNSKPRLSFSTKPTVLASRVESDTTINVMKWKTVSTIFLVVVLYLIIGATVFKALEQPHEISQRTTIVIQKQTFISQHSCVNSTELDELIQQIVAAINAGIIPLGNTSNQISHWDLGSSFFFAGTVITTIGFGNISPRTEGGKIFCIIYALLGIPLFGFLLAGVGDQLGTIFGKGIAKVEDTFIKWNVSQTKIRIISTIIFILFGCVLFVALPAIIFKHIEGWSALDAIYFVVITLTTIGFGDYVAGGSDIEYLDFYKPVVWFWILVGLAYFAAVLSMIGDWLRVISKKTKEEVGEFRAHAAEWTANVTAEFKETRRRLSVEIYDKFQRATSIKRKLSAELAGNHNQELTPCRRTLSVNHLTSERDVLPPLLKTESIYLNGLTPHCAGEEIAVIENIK
Experimental: as §2, §3

[1] = molecular target: native Kv1.3 current in activated human T-cells (Homo sapiens, UniProt P22001); test: Patch-clamp of native Kv1.3 current in activated human T-cells; assay type: cell-based; conditions: approximation, underestimate of potency (saturation incomplete); read-out: IC50 for human T-cell Kv1.3 current
Chain of native Kv1.3 current in activated human T-cells (P22001 whole entry): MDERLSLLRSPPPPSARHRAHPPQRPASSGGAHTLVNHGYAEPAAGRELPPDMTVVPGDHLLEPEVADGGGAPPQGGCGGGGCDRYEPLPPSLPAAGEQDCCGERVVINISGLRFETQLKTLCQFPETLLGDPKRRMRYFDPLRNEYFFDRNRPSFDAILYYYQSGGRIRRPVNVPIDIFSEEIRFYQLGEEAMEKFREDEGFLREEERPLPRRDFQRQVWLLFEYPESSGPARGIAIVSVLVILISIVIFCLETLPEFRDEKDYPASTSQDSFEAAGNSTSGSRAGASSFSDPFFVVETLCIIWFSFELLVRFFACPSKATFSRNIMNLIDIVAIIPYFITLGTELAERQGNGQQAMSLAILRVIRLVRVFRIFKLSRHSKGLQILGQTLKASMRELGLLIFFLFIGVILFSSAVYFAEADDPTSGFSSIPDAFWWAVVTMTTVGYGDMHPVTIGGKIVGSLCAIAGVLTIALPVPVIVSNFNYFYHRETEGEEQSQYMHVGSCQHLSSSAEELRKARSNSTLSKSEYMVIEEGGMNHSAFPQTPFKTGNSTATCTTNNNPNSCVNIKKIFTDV
Experimental: Human CD4+ T cells from frozen PBMCs ([sequence] Technologies) were isolated with EasySep negative isolation kit ([sequence] Technologies, cat. #17952) according to manufacturers’ protocols. After isolation cells were plated on anti-CD3 (BioLegend, clone OKT3, 2.5 μg/ml), anti-CD28 (BioLegend, clone CD28.2, 2.5 μg/ml)-coated 6-well plate dish at 1.5 × 10^6 cells/well in 3 ml RPMI medium (Gibco) supplemented with 10% FBS (Omega Scientific), 1% L-glutamine (Gibco), 1% non-essential amino acids (Gibco), 1% sodium pyruvate (Gibco), 1% penicillin–streptomycin–amphotericin B (Gibco) and 50 µM, β-mercaptoethanol (Sigma), 30 U/ml recombinant human IL-2 (BioLegend, cat. #589102). Cells were incubated during 48–144 h in 5% CO2 + 95% O2 atmosphere at 37 °C, harvested and plated on poly-lysine coated coverslips; 30–60 min later cells were used in the experiment.
We performed patch clamp experiments at 20–23 °C, acquiring data with an EPC9 patch clamp amplifier (HEKA), a 5 kHz sampling rate and digitally filtering at 1–2 kHz. […] The Kv1.3 currents were recorded in response to 600 ms step pulse from holding potential −80 mV to +40 mV acquired every 30 s. […] The recorded currents were analyzed with Patch Master (HEKA Electronics) and Origin Pro (Origin Lab).

Kv1.3 Mutant 1 = Kv1.3 Mutant 1 (Homo sapiens, UniProt P22001, D423E/G427Q/P424R/S429P/T425E); test: TEVC electrophysiology, oocytes expressing Kv1.3 Mutant 1 (Kv1.2 turret loop residues); assay type: cell-based
Chain of Kv1.3 Mutant 1 (P22001 whole entry D423E/P424R/T425E/G427Q/S429P): as the sequence (P22001 whole entry) above, with D423E, P424R, T425E, G427Q, S429P counted along it
Description: as §1, §2, §3, §4

Chain of Kv1.3 Mutant 3 (P22001 whole entry H451V/V453T): as the sequence (P22001 whole entry) above, with H451V, V453T counted along it
Chain of Kv1.1 (Q09470 whole entry): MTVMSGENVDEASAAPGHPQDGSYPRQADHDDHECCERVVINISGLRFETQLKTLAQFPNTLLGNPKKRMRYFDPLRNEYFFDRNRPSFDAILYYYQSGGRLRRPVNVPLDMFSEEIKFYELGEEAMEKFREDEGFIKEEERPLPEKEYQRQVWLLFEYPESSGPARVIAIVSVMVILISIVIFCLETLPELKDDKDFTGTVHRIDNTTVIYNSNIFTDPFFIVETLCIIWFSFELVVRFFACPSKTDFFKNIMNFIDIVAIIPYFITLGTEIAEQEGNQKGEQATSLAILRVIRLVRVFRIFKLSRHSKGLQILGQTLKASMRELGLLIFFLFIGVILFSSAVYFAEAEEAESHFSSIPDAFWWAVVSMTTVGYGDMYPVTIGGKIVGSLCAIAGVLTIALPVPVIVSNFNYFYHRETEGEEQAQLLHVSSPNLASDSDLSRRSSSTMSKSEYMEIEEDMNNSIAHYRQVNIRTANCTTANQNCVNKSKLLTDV
Chain of Kv7.5 (Q9NR82 whole entry): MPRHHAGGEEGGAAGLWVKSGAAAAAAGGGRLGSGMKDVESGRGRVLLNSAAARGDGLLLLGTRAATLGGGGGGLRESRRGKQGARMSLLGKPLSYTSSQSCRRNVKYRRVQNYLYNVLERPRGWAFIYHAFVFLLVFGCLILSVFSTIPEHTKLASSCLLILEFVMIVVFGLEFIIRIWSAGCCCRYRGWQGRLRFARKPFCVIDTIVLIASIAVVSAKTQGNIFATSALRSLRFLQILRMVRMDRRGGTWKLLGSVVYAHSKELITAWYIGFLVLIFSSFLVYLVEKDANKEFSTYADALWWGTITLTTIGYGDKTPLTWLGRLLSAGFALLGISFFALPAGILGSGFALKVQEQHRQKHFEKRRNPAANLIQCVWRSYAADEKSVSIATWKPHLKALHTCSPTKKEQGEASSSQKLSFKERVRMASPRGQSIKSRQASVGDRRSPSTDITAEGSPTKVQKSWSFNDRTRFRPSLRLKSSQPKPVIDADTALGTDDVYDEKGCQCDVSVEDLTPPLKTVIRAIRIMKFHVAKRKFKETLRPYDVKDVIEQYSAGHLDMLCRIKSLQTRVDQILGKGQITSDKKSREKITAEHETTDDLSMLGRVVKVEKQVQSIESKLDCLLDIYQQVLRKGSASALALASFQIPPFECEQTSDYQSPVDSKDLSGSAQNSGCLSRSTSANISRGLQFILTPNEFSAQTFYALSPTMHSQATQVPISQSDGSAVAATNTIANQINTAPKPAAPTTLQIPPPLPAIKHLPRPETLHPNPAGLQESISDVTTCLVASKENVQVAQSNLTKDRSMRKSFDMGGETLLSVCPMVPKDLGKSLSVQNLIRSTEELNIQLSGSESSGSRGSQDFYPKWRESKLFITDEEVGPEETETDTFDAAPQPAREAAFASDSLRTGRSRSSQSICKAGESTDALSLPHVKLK

Substance: tannic acid
- effect on voltage dependence of Kv1.1 (Kv1.1): negative-shift
- constitutive activation for Kv7.5 (Kv7.5): 50%
- Slope (Kv1.3 Mutant 3; 0.1 µM tannic acid, control 2.50 ± 0.70): 4.01 ± 0.35 mV
- Current at 0 (mV) (Kv1.3 Mutant 3; 0.1 µM tannic acid, control 3.39 ± 0.48): 4.20 ± 0.53
- V0.5 Normalized tail current (Kv1.3 Mutant 3; 0.1 µM tannic acid, control -31.00 ± 0.53): -30.20 ± 0.78 mV
- Current at 0 (mV) (Kv1.3 Mutant 3; 1 µM tannic acid): 4.44 ± 0.64
- Slope (Kv1.3 Mutant 3; 1 µM tannic acid): 3.67 ± 0.41 mV
- V0.5 Normalized tail current (Kv1.3 Mutant 3; 1 µM tannic acid): -30.51 ± 0.97 mV
- Current at 0 (mV) (Kv1.3 Mutant 3; 3 µM tannic acid): 4.25 ± 0.64
- Slope (Kv1.3 Mutant 3; 3 µM tannic acid): 4.85 ± 0.24 mV
- V0.5 Normalized tail current (Kv1.3 Mutant 3; 3 µM tannic acid): -30.85 ± 1.34 mV
- Current at 0 (mV) (Kv1.3 Mutant 3; 10 µM tannic acid): 2.28 ± 0.38
- Slope (Kv1.3 Mutant 3; 10 µM tannic acid): 6.40 ± 0.62 mV
- V0.5 Normalized tail current (Kv1.3 Mutant 3; 10 µM tannic acid): -29.05 ± 1.94 mV
- Current at 0 (mV) (Kv1.3 Mutant 3; 30 µM tannic acid): 0.88 ± 0.13
- Slope (Kv1.3 Mutant 3; 30 µM tannic acid): 14.11 ± 1.75 mV
- V0.5 Normalized tail current (Kv1.3 Mutant 3; 30 µM tannic acid): -16.81 ± 5.40 mV
- Current at 0 (mV) (Kv1.3 Mutant 3; 100 µM tannic acid): 0.50 ± 0.07
- change of tannic acid IC50 versus wild-type Kv1.3 (Kv1.3 Mutant 3; inhibition dose response): did not alter
- Current at 0 (mV) (TREK-1 (KCNK2); 10 µM tannic acid, control 0.23 ± 0.03): 0.44 ± 0.08
- Current at 0 (mV) (TREK-1 (KCNK2); 50 µM tannic acid): 0.89 ± 0.11
- Current at 0 (mV) (TREK-1 (KCNK2); 100 µM tannic acid): 1.37 ± 0.14
- Current at 0 (mV) (TREK-1 (KCNK2); 250 µM tannic acid): 1.86 ± 0.19
- Current at 0 (mV) (TREK-1 (KCNK2); 500 µM tannic acid): 2.22 ± 0.24
- increase in KCNK2 current (TREK-1 (KCNK2); at 500 µM, 0 mV): > 10 fold
- EC50 (TREK-1 (KCNK2); current fold increase at 0 mV, read-out: EC50 for KCNK2 (TREK-1) activation): 143 ± 4 µM
- IC50 [1]: 3.3 ± 0.2 µM
- Slope (Kv1.3 Mutant 1; 0.1 µM tannic acid, control 3.97 ± 0.40): 5.16 ± 0.56 mV
- Current at 0 (mV) (Kv1.3 Mutant 1; 0.1 µM tannic acid, control 4.66 ± 1.27): 5.24 ± 0.91
- V0.5 Normalized tail current (Kv1.3 Mutant 1; 0.1 µM tannic acid, control -14.75 ± 3.06): -20.05 ± 2.13 mV
- Current at 0 (mV) (Kv1.3 Mutant 1; 1 µM tannic acid): 5.37 ± 0.63
- Slope (Kv1.3 Mutant 1; 1 µM tannic acid): 4.97 ± 0.53 mV
- V0.5 Normalized tail current (Kv1.3 Mutant 1; 1 µM tannic acid): -24.05 ± 2.18 mV
- Current at 0 (mV) (Kv1.3 Mutant 1; 3 µM tannic acid): 4.93 ± 0.57
- Slope (Kv1.3 Mutant 1; 3 µM tannic acid): 5.05 ± 0.28 mV
- V0.5 Normalized tail current (Kv1.3 Mutant 1; 3 µM tannic acid): -27.01 ± 1.83 mV
- Current at 0 (mV) (Kv1.3 Mutant 1; 10 µM tannic acid): 4.01 ± 0.41
- Slope (Kv1.3 Mutant 1; 10 µM tannic acid): 5.33 ± 0.20 mV
- V0.5 Normalized tail current (Kv1.3 Mutant 1; 10 µM tannic acid): -27.63 ± 1.98 mV
- Current at 0 (mV) (Kv1.3 Mutant 1; 30 µM tannic acid): 2.18 ± 0.24
- Slope (Kv1.3 Mutant 1; 30 µM tannic acid): 5.94 ± 0.30 mV
- V0.5 Normalized tail current (Kv1.3 Mutant 1; 30 µM tannic acid): -24.82 ± 2.70 mV
- Current at 0 (mV) (Kv1.3 Mutant 1; 100 µM tannic acid): 1.15 ± 0.14
- Slope (Kv1.3 Mutant 1; 100 µM tannic acid): 6.41 ± 0.42 mV
- V0.5 Normalized tail current (Kv1.3 Mutant 1; 100 µM tannic acid): -19.79 ± 4.83 mV
- reduction of tannic acid sensitivity versus wild-type Kv1.3 (Kv1.3 Mutant 1; inhibition dose response): threefold

— PMC11358443, “Polymodal K^+ channel modulation contributes to dual analgesic and anti-inflammatory actions of traditional botanical medicines” (Communications Biology, 2024)
